Read-outs that look alike come from different tables or passages of the source.
Experiments:
[1] = molecular target: ribosomes from S. cerevisiae Y166 (peptidyl transferase activity); experiment: fragment reaction, S. cerevisiae ribosomes; assay type: biochemical; conditions: 50% inhibition relative to control; 0° C., 30 min, 33% methanol; read-out: ED50 Fragment reaction S. cerevisiae
Experimental: (§1) The peptidyl transferase activity was measured by the polyphenylalanine synthesis assay (Nirenberg and Matthei, Proc. Natl. Acad. Sci. USA 47 (1961) 1588), the fragment reaction (Monro, Methods Enzymol. 20 (1971) 472) and the puromycin reaction. In all the in vitro tests, i.e. polyPhe synthesis, fragment reaction and puromycin reaction, ribosomes from E. coli MRE600 and S. cerevisiae Y166 were used. The reaction mixture for polyphenylalanine synthesis was slightly different for E. coli and S. cerevisiae.
(§2) The fragment reaction was carried out in 150 μl of 33 mM Tris-HCl pH 7.4, 270 mM KCl, 13 mM magnesium acetate containing 1 mg/ml of ribosomes, 2 mM puromycin, 1 pmol of N-acetyl-[^3 H]Leu-ACCAC(U), the required concentration of sparsomycin or its analogue and 33% methanol. The reaction was initiated by the addition of the alcohol and allowed to proceed at 0° C. for 30 min, and was then stopped by the addition of 100 μl of 0.3M sodium acetate pH 5.5 saturated with MgSO4. The samples were extracted with 1.5 ml of ethyl acetate and 1 ml of the organic phase was checked for radioactivity. The 3' terminal pentanucleotide N-acetyl-[^3 H]Leu-ACCAC(U) was prepared from N-acetyl-[^3 H]Leu-tRNA by ribonuclease T1 as described by Monro.
(§3) The concentration of sparsomycin or an analog giving 50% inhibition of the protein synthesis relative to the control is given in ED50.

Leukemia L 1210 cells = experiment: in vitro clonogenic L1210 assay (inhibition of colony formation in soft agar); assay type: cell-based; conditions: Mus musculus, L1210, 72 h, read-out: ID50 (dose giving 50% inhibition of L1210 colony formation)
Experimental: The in vitro clonogenic assay was effected in Leukemia L 1210 cells in soft agar medium (0.3%). […] In the analysis, the inhibition of the L 1210 colony formation by sparsomycin and derivatives thereof is determined for various concentrations, and the dose giving 50% inhibition of the colony formation, as compared with non-treated control cells is calculated (ID50).
From a suspension culture one hundred L 1210 cells are plated out in 35 mm culture dishes (Falcon) containing 1 ml soft agar culture medium and the compound to be investigated in suitable concentrations. The soft agar culture medium consists of Dulbecco's medium supplemented with 20% horse serum, 60 μmole 2-mercaptoethanol, 20 mg/ml L-asparagine, 75 mg/ml DEAE dextran (molecular weight 2×10^6) and 0.3% bacto agar (Difco). The culture dishes were incubated at 37° C. in an atmosphere of 10% CO2 in humidified air for 3 days. After this period of continuous exposure to the medicament the colonies were counted and dose-effect curves made. From these curves, the medicament dose is calculated which causes 50% inhibition of the colony formation as compared with non-treated control cells.

[2] = test system: ribosomes from E. coli MRE600 (peptidyl transferase activity); experiment: polyphenylalanine synthesis assay, E. coli ribosomes; assay type: biochemical; conditions: concentration giving 50% inhibition relative to control; 37° C., 30 min; read-out: ED50 polyPhe synthesis E. coli
Experimental: as §1
E. coli: The reaction mixture (50 μl) contained 50 mM Tris-HCl pH 7.6, 15 mM MgCl2, 90 mM KCl, 15 mM β-mercapto ethanol, 1 mM GTP, 10 mM ATP, 0.2 mg/ml of polyuridylic acid, 1.5 mg/ml tRNA, 0.3 μM of ribosomes, 2.5 mg/ml of phosphoenol pyruvate, 20 μg/ml of pyruvate kinase, the required concentration of sparsomycin or its analogue and 5 μl of supernatant fraction S-100. Subsequently, [^3 H]phenylalanine, 30 μM (about 60 cpm/pmol) was added to start the reaction. Incubation was at 37° C. for 30 min. The reaction was stopped by the addition of 1 ml of 10% TCA and the samples were filtered through glass fiber filters. The filters were washed with 10 ml of cold 10% TCA, dried and counted for radioactivity.
as §3

[3] = molecular target: ribosomes from S. cerevisiae Y166 (peptidyl transferase activity); experiment: polyphenylalanine synthesis assay, S. cerevisiae ribosomes; assay type: biochemical; conditions: concentration giving 50% inhibition relative to control; 30° C., 30 min; read-out: ED50 polyPhe synthesis S. cerevisiae
Experimental: as §1
S. cerevisiae: The test was carried out as indicated above for E. coli. The phosphoenol pyruvate and pyruvate kinase were, however, replaced by creatine phosphate (20 mM) and creatine phosphokinase (50 μg/ml). The incubation was performed at 30° C. for 30 min and the samples were processed as described above. Under these conditions the control samples polymerized 5-14 and 3-8 molecules of phenylalanine per ribosome derived from E. coli and S. cerevisiae, respectively. Ribosomes and supernatant factors from E. coli and S. cerevisiae were prepared according to standard procedures, described by Staehelin and Maglott, Methods Enzymol. 20 (1971) 449, and by Sanchez-Madrid et al, Eur. J. Biochem. 98 (1979) 409.
as §3

acute toxicity LD50 = assay type: in vivo, mice; conditions: for LD50: mouse, in vivo, ip, daily x9 injections, mice, 95% confidence interval given, read-out: LD 50 in mg/kg/inj i.p. in mice
Description: It appears therefrom that ala-sparsomycin is about 9× less toxic than sparsomycin.

E. coli MRE600 = experiment: inhibition of bacterial growth; assay type: cell-based
Experimental: Inhibition of bacterial growth was tested in solid as well as in liquid medium. For the test on agar plates, petri dishes containing 15 ml of LB medium (10 g/l bactotryptone, 5 g/l yeast extract and 5 g/l NaCl) were covered with 5 ml of the same medium--kept melted at 40° C.--containing 40 μl of a culture of the required bacterium at approximately an A550 of 2. After solidification, 3 mm filter disks containing 4 μl of a 10 mM solution of the antibiotic in 50EtOH/DMSO were placed on the surface of the agar and the plates were incubated at 37° C. for 24 h. For the test in liquid medium, E. coli MRE600 was grown in LB medium supplemented with 0.2% of glucose to exponential phase (A560 =0.1) and distributed in 1 ml aliquots in tubes containing the required amount of antibiotic. The tubes were incubated at 37° C. for 4 h, subsequently diluted with 3 ml of 0.1% of sodium azide to stop growth and the absorption at 550 nm was measured. The absorption of the medium without addition of antibiotic was considered as 100% growth.

L1210 leukemia = experiment: in vivo antitumor assay, L1210 leukemia; parameters: species or system CDF1 mice
Experimental: (§4) The antitumor activity of the present compounds has also been investigated by in vivo assays. In the assays, mice were treated for nine days in succession, starting at 24 hours after the time of tumor implant.
(§5) The results are shown in tables 4, 5 and 6 and represent the number of tumor-bearing mice surviving after administration of optimal doses of the test compound, expressed as a treatment/control (T/C×100%) ratio. In the tables, information is provided with respect to the sex, dose, weight loss of treated animals compared to control animals, and the number of survivors in groups of 6 mice.

[4] = test system: RC (renal cell) carcinoma; experiment: in vivo antitumor assay, RC (renal cell) carcinoma; parameters: species or system CDF1 mice
Experimental: as §4, §5

[5] = test system: ribosomes from E. coli MRE600 (peptidyl transferase activity); experiment: fragment reaction, E. coli ribosomes; assay type: biochemical; conditions: 50% inhibition relative to control; 0° C., 30 min, 33% methanol; read-out: ED50 Fragment reaction E. coli
Experimental: as §1, §2, §3

[6] = female mice, ip daily x9, optimal dose mg/kg: sparsomycin 0.25, n-octyl 12.0, benzyl 10.0, 2a 2.5, 2e 13.3
[7] = female mice, ip daily x9, dose mg/kg: sparsomycin 0.25, n-octyl 12.0, benzyl 10.0, 2a 2.5, 2e 13.3
[8] = male mice, ip daily x9, optimal dose mg/kg: sparsomycin 0.125, n-octyl 20.0, benzyl 4.0, 2a 1.7
[9] = male mice, ip daily x9, dose mg/kg: sparsomycin 0.125, n-octyl 20.0, benzyl 4.0, 2a 1.7
[10] = female mice, ip daily x9, dose mg/kg: 2a 2.3
[11] = male mice, ip daily x9, optimal dose mg/kg: sparsomycin 0.125, n-octyl 20.0, benzyl 2.7, 2a 1.1
[12] = male mice, ip daily x9, dose mg/kg: sparsomycin 0.125, n-octyl 20.0, benzyl 2.7, 2a 1.1

| SMILES | IC50 [1] [µM] | IC50 [2] [µM] | IC50 [3] [µM] | LD50 (acute toxicity LD50) [mg/kg] | T/C (survival, treatment/control x 100%) (L1210 leukemia; [6]) [%] | cures (survivors in groups of 6 mice) (L1210 leukemia; [7]) | T/C (survival, treatment/control x 100%) (L1210 leukemia; [8]) [%] | cures (survivors in groups of 6 mice) (L1210 leukemia; [9]) | T/C (survival, treatment/control x 100%) [4, 11] [%] | cures (survivors in groups of 6 mice) [4, 12] | IC50 [5] [µM] | further results |
| --- | --- | --- | --- | --- | --- | --- | --- | --- | --- | --- | --- | --- |
| CSC[S@+]([O-])C[C@H](C)NC(=O)/C=C/c1c(C)[nH]c(=O)[nH]c1=O [2a, (Sc Rs)-1-(methylthiomethyl)sulfinyl-2-[β-(6-methyl-5-uracilyl)acrylamido]-propane] | 5.7 | 15.1 | 7.5 | 2.33 | 184 | 0/6 | 248 | 2/6 | 304 | 0/6 | 4.7 | IC50 (Leukemia L 1210 cells): 0.1 µM; times less toxic than sparsomycin (LD50 ratio) (acute toxicity LD50; compared with sparsomycin, LD50 i.p. in mice): about 9 ×; IC50 (E. coli MRE600; Escherichia coli, MRE600, 4 h, read-out: Growth inhibition E. coli MRE600 ED50): 5.6 µM; weight loss (T - C) (L1210 leukemia; [7]): -1.4 g; weight loss (T - C) (L1210 leukemia; male mice, ip daily x9 from 24 h after implant, dose mg/kg: sparsomycin 0.125, n-octyl 20.0, benzyl 4.0, 2a 1.7): -2.0 g; T/C (survival, treatment/control x 100%) ([4]; female mice, ip daily x9, optimal dose mg/kg: 2a 2.3): 300%; cures (survivors in groups of 6 mice) [4, 10]: 0/6; weight loss (T - C) [4, 10]: -1.5 g; weight loss (T - C) [4, 12]: -0.6 g |
| CSC[S@+]([O-])C[C@H](CO)NC(=O)/C=C/c1c(C)[nH]c(=O)[nH]c1=O [Sparsomycin] | 2.8 | 8.5 | 5.2 | 0.26 | 121 | 0/6 | 105 | 0/6 | 100 | 0/6 | 3.2 | IC50 (Leukemia L 1210 cells; soft agar 0.3%, 3 days continuous exposure, vs non-treated control cells): 0.4 µM; IC50 (E. coli MRE600; Escherichia coli, MRE600, 4 h; read-out: Growth inhibition E. coli MRE600 ED50): 11 µM; weight loss (T - C) (L1210 leukemia; mouse, in vivo, ip): -1.1 g; weight loss (T - C) ([4]; mouse, in vivo, ip): -1.7 g |
